As usually defined, the IC50 is the point on the concentration scale where inhibition reaches its midpoint.

The test system of this assay is KB 3.1 (DSMZ ACC 158) cells. Kind of assay: Cell proliferation assay under folate free conditions. It counts as cell-based. To be noted: RPMI-medium without folic acid + 10% dialyzed fetal calf serum; MTT assay after 1, 2 and 5 days (day of the value not given); read-out: IC50 [nM] KB 3.1 (Folate-Ratjadone Conjugates). The protocol:
KB 3.1 (DSMZ ACC 158) cells were cultivated at 37° C. and 10% C002 in RMPI-medium without folic acid (Gibco) with 10% fetal calf serum (Gibco). 120 μL of suspended cells (100.000/mL) were seeded in wells of 96-well plates and after 24 h at 37° C. and 10% CO2 the medium was removed, the cells were washed with PBS and RPMI-medium without folic acid (Gibco)+10% dialyzed fetal calf serum (Sigma) were added to the cells, before after additional 24 h at 37° C. and 10% C002 60 μL of serial dilutions of the test compound were given to cells. After 1, 2 and 5 days of incubation growth inhibition (IC50) was determined using an MTT assay.^[64]
(In general: Tetrazolium assays rely on reduction of a dye to a coloured formazan, in cell work by metabolically active cells.)
`C/C=C/[C@@H]1O[C@H]([C@@H](/C=C/C=C(\C)C[C@@H](C)/C=C(C)\C=C\[C@H]2CC=CC(=O)O2)NC(=O)OCc2ccc(NC(=O)[C@H](CCCNC(N)=O)NC(=O)[C@@H](NC(=O)OC[C@@H]3[C@@H]4CCc5nnn(-c6ccc(C(=O)NCCCC[C@H](NC(=O)CC[C@H](NC(=O)CC[C@H](NC(=O)c7ccc(NCc8cnc9nc(N)nc(O)c9n8)cc7)C(=O)O)C(=O)O)C(=O)O)cc6)c5CC[C@@H]43)C(C)C)cc2)C[C@@H](O)[C@@H]1C` [FA-6-Val-Cit-PABA-16R-Aminoratjadone]: the 50% inhibitory concentration (IC50) turned out to be 223 nM.
On to `C/C=C/[C@@H]1O[C@H]([C@@H](/C=C/C=C(\C)C[C@@H](C)/C=C(C)\C=C\[C@H]2CC=CC(=O)O2)NC(=O)OCCc2cn(CCC[C@H](NC(=O)CC[C@H](NC(=O)CC[C@H](NC(=O)c3ccc(NCc4cnc5nc(N)nc(O)c5n4)cc3)C(=O)O)C(=O)O)C(=O)O)nn2)C[C@@H](O)[C@@H]1C` [FA-7-16R-Aminoratjadone, N^2-(4-(((2-amino-4-hydroxypteridin-6-yl)methyl)amino)benzoyl)-N^5—((S)-1-carboxy-4-(((S)-1-carboxy-4-(4-(2-((((1R,2E,4E,7R,8Z,10E)-1-((2S,4R,5S,6S)-4-hydroxy-5-methyl-6-((E)-prop-1-en-1-yl)tetrahydro-2H-pyran-2-yl)-5,7,9-trimethyl-11-((R)-6-oxo-3,6-dihydro-2H-pyran-2-yl)undeca-2,4,8,10-tetraen-1-yl)carbamoyl)oxy)ethyl)-1H-1,2,3-triazol-1-yl)butyl)amino)-4-oxobutyl)-L-glutamine], for which the IC50 worked out at 190 nM.
`C/C=C/[C@@H]1O[C@H]([C@@H](/C=C/C=C(\C)C[C@@H](C)/C=C(C)\C=C\[C@H]2CC=CC(=O)O2)NC(=O)OCc2ccc(NC(=O)[C@H](CCCNC(N)=O)NC(=O)[C@@H](NC(=O)OC[C@@H]3[C@@H]4CCc5nnn(CCC[C@H](NC(=O)CC[C@H](NC(=O)CC[C@H](NC(=O)c6ccc(NCc7cnc8nc(N)nc(O)c8n7)cc6)C(=O)O)C(=O)O)C(=O)O)c5CC[C@@H]43)C(C)C)cc2)C[C@@H](O)[C@@H]1C` [FA-7-Val-Cit-PABA-16R-Aminoratjadone]: the IC50 was 34.3 nM.
In the case of `C/C=C/[C@@H]1O[C@H]([C@@H](/C=C/C=C(\C)C[C@@H](C)/C=C(C)\C=C\[C@H]2CC=CC(=O)O2)NC(=O)OCCc2cn(-c3ccc(C(=O)NCCCC[C@H](NC(=O)CC[C@H](NC(=O)c4ccc(NCc5cnc6nc(N)nc(O)c6n5)cc4)C(=O)O)C(=O)N[C@H](CCCCN)C(=O)O)cc3)nn2)C[C@@H](O)[C@@H]1C` [FA-8-16R-Aminoratjadone, N^2—((S)-4-(4-(((2-amino-4-hydroxypteridin-6-yl)methyl)amino)benzamido)-4-carboxybutanoyl)-N^6-(4-(4-(2-((((1R,2E,4E,7R,8Z,10E)-1-((2S,4R,5S,6S)-4-hydroxy-5-methyl-6-((E)-prop-1-en-1-yl)tetrahydro-2H-pyran-2-yl)-5,7,9-trimethyl-11-((R)-6-oxo-3,6-dihydro-2H-pyran-2-yl)undeca-2,4,8,10-tetraen-1-yl)carbamoyl)oxy)ethyl)-1H-1,2,3-triazol-1-yl)benzoyl)-L-lysyl-D-lysine], the IC50 stood at 129 nM.
On to `C/C=C/[C@@H]1O[C@H]([C@@H](/C=C/C=C(\C)C[C@@H](C)/C=C(C)\C=C\[C@H]2CC=CC(=O)O2)NC(=O)OCc2ccc(NC(=O)[C@H](CCCNC(N)=O)NC(=O)[C@@H](NC(=O)OC[C@@H]3[C@@H]4CCc5nnn(-c6ccc(C(=O)NCCCC[C@H](NC(=O)CC[C@H](NC(=O)c7ccc(NCc8cnc9nc(N)nc(O)c9n8)cc7)C(=O)O)C(=O)N[C@H](CCCCN)C(=O)O)cc6)c5CC[C@@H]43)C(C)C)cc2)C[C@@H](O)[C@@H]1C` [FA-8-Val-Cit-PABA-16R-Aminoratjadone], for which the half-maximal inhibitory concentration (IC50) was found to be 39.9 nM.
For `C/C=C/[C@@H]1O[C@H]([C@@H](/C=C/C=C(\C)C[C@@H](C)/C=C(C)\C=C\[C@H]2CC=CC(=O)O2)NC(=O)OCCc2cn(CCC[C@H](NC(=O)CC[C@H](NC(=O)c3ccc(NCc4cnc5nc(N)nc(O)c5n4)cc3)C(=O)O)C(=O)N[C@H](CCCCN)C(=O)O)nn2)C[C@@H](O)[C@@H]1C` [FA-9-16R-Aminoratjadone, ((S)-2-((S)-4-(4-(((2-amino-4-hydroxypteridin-6-yl)methyl)amino)benzamido)-4-carboxybutanamido)-5-(4-(2-((((1R,2E,4E,7R,8Z,10E)-1-((2S,4R,5S,6S)-4-hydroxy-5-methyl-6-((E)-prop-1-en-1-yl)tetrahydro-2H-pyran-2-yl)-5,7,9-trimethyl-11-((R)-6-oxo-3,6-dihydro-2H-pyran-2-yl)undeca-2,4,8,10-tetraen-1-yl)carbamoyl)oxy)ethyl)-1H-1,2,3-triazol-1-yl)pentanoyl)-D-lysine], the IC50 stood at 47.6 nM.
For the compound `C/C=C/[C@@H]1O[C@H]([C@@H](/C=C/C=C(\C)C[C@@H](C)/C=C(C)\C=C\[C@H]2CC=CC(=O)O2)NC(=O)OCc2ccc(NC(=O)[C@H](CCCNC(N)=O)NC(=O)[C@@H](NC(=O)OC[C@@H]3[C@@H]4CCc5nnn(CCC[C@H](NC(=O)CC[C@H](NC(=O)c6ccc(NCc7cnc8nc(N)nc(O)c8n7)cc6)C(=O)O)C(=O)N[C@H](CCCCN)C(=O)O)c5CC[C@@H]43)C(C)C)cc2)C[C@@H](O)[C@@H]1C` [FA-9-Val-Cit-PABA-16R-Aminoratjadone], the 50% inhibitory concentration (IC50) stood at 50.9 nM.
For the compound `C/C=C/[C@@H]1O[C@H]([C@@H](/C=C/C=C(\C)C[C@@H](C)/C=C(C)\C=C\[C@H]2CC=CC(=O)O2)NC(=O)OCCc2cn(CCC[C@H](NC(=O)[C@@H](CC(=O)O)NC(=O)[C@@H](CC(=O)O)NC(=O)[C@@H](CC(=O)O)NC(=O)CC[C@H](NC(=O)c3ccc(NCc4cnc5nc(N)nc(O)c5n4)cc3)C(=O)O)C(=O)N[C@H](CC(=O)O)C(=O)N[C@H](CC(=O)O)C(=O)N[C@H](CCCCN)C(=O)O)nn2)C[C@@H](O)[C@@H]1C` [FA-10-16R-Aminoratjadone], the concentration for half-maximal inhibition (IC50) was 708 nM.
In the case of `C/C=C/[C@@H]1O[C@H]([C@@H](/C=C/C=C(\C)C[C@@H](C)/C=C(C)\C=C\[C@H]2CC=CC(=O)O2)NC(=O)OCc2ccc(NC(=O)[C@H](CCCNC(N)=O)NC(=O)[C@@H](NC(=O)OC[C@@H]3[C@@H]4CCc5nnn(CCC[C@H](NC(=O)[C@@H](CC(=O)O)NC(=O)[C@@H](CC(=O)O)NC(=O)[C@@H](CC(=O)O)NC(=O)CC[C@H](NC(=O)c6ccc(NCc7cnc8nc(N)nc(O)c8n7)cc6)C(=O)O)C(=O)N[C@H](CC(=O)O)C(=O)N[C@H](CC(=O)O)C(=O)N[C@H](CCCCN)C(=O)O)c5CC[C@@H]43)C(C)C)cc2)C[C@@H](O)[C@@H]1C` [FA-10-Val-Cit-PABA-16R-Aminoratjadone], the half-maximal inhibitory concentration (IC50) is 35.3 nM.

For the origin of these results see patent publication US11236059B2, “Targeted cytotoxic ratjadone derivatives and conjugates thereof” (HELMHOLTZ-ZENTRUM FUER INFEKTIONSFORSCHUNG GMBH, priority 2017, dated 2022).
